# From patent publication US11414398B2, “Selective organic cation transporters inhibitors for the treatment of depressive disorders” (priority 2017, dated 2022)
# Entries after “also recorded” stand apart in the source; their conditions may differ.
# How the values were obtained:
# [1] = mouse, in vivo
# Method: (§1) Corticosterone-induced depression. To induce a chronic depression-like state, individually housed mice were administered corticosterone ([…]; Sigma-Aldrich) dissolved in 0.45% (wt/vol) hydroxypropyl-b-cyclodextrin (Sigma-Aldrich) as in (Bacq et al., Mol. Psychiatry, 2012, 17, 926-939). […] The mice were tested successively for coat sate, sucrose consumption, elevated O-maze, object location test and social interaction, before antidepressant treatment, and after 10 days and 3 weeks of treatment. The experimental scheme is represented on FIG. 1A.
# Blood parameter evaluation. Blood was collected in lithium heparin after the 3 weeks of treatment. Hemograms were performed with a Siemens ADVIAZ 120 apparatus. For biochemistry, blood was centrifuged at 2000 g for 10 min at +4° C. and supernatant was analyzed with a COBAS 6000 (Roche) apparatus.
# [2] = Acute administration: locomotor activity and anxiety level; format: in vivo
# [3] = Forced swim test, acute administration; format: in vivo
# [4] = Metabolic conversion in microsomal fraction; format: in vitro ADME; conditions: 100 μM, rat liver microsomes 1 mg protein/mL, NADPH generating system, 37° C.
# Method: Method. […] The reactions were stopped by adding one-half volume of CH3CN containing 8% CH3COOH and the proteins were removed by centrifugation at 13000 g. […] B=CH3CN/HCOOH (999:1)) at 200 μL/min. Mass spectra were obtained by electrospray ionization (ESI) in positive ionization mode detection under the following conditions: source parameters, […], 15; auxiliary gas, 5; spray voltage, 3.2 kV; capillary temperature, 275° C.; and m/z range for MS recorded generally between 150 and 900. For all products, the indicated parent ions corresponded to [M+H]^+.
# [5] = tested on: corticosterone-induced depression model; test: Open-field test, corticosterone-induced depression; format: in vivo, mice
# Method: as §1
# Open-field test. The open field consisted of a white Plexiglas field (100×100×30 cm) with the center brightly illuminated (500 lux). General locomotor activity in the center and periphery of the open field were scored for 9 min. The time and number of entries in the center zone (60×60 cm) were evaluated as an index of anxiety-related response (FIG. 2B).
# social defeat model = test: Social defeat model, social interaction test; format: in vivo, mice; conditions: after 3 weeks of treatment; fluoxetine 17 mg/kg, compound (I-1) 0.1 mg/kg as printed
# Method: (§2) Social defeat model. For social defeat, 8-week-old C57Bl/6J mice were submitted to social defeat stress for 10 consecutive days as described (Berton et al., Science, 2006, 311(5762), 864-8). […] The experimental scheme is represented on FIG. 1H. Social interaction test. The social interaction test was performed in a white open-field (42×42 cm) containing an empty wire mesh cage (10×6.5 cm) located at an extremity of the field in a low luminosity environment (25 lux). Each test mouse was allowed to explore the openfield for two consecutive sessions of 2.5 min. During the second session, an unfamiliar mouse was introduced into the cage. Between the two sessions, the test mouse was placed back into its home cage for approximately one minute. The time spent by the test mouse in the interaction zone, defined as an 8-cm-wide region surrounding the mesh cage, was measured in both sessions by video tracking (Viewpoint, Lyon, France) (FIGS. 1G and 1I).
# [6] = tested on: corticosterone-induced depression model; test: Social interaction test, corticosterone-induced depression; format: in vivo, mice; conditions: 21 days of treatment; compared to corticosterone
# Method: as §2, with “Corticosterone-induced depression.” for “Social defeat model. For social defeat, 8-week-old C57Bl/6J mice were submitted to social defeat stress for 10 consecutive days as described (Berton et al., Science, 2006, 311(5762), 864-8).”, “1A.” for “1H.”
# [7] = tested on: corticosterone-induced depression model; test: Sucrose preference test, corticosterone-induced depression; format: in vivo, mice; conditions: i.p. daily: I-1 0.1 mg/kg/day, fluoxetine 15 mg/kg/day or both
# Method: Corticosterone-induced depression. […] The experimental scheme is represented on FIG. 1A. Sucrose preference test. Singled-house mice were first habituated for 48 h to drink water from two bottles.
# [8] = tested on: corticosterone-induced depression model; test: Coat state, corticosterone-induced depression; format: in vivo, mice; conditions: both time points; i.p. daily: I-1 0.1 mg/kg/day, fluoxetine 15 mg/kg/day or both
# Method: Corticosterone-induced depression. […] The experimental scheme is represented on FIG. 1A. Coat state. The coat state of each animal was assessed weekly as a measure of motivation toward self-care. It was evaluated as the sum of the score of different parts of the body, ranging between 0 for a well-groomed coat and 1 for an unkempt coat for head, neck, dorsal/ventral coat, tail and forepaws/hindpaws (FIG. 1B).
# [9] = Effect on weight, corticosterone-induced depression; format: in vivo, mice; conditions: weight measured daily; I-1 0.1 mg/kg/day, fluoxetine 15 mg/kg/day or both, i.p.
# Method: Corticosterone-induced depression. […] The experimental scheme is represented on FIG. 1A. Effect on weight. The weight of tested mice was measured daily in the morning (FIG. 2D).
# [10] = tested on: corticosterone-induced depression model; test: Elevated O-maze test, corticosterone-induced depression; format: in vivo, mice; conditions: after 21 days; i.p. daily: I-1 0.1 mg/kg/day, fluoxetine 15 mg/kg/day or both
# Method: Corticosterone-induced depression. […] The experimental scheme is represented on FIG. 1A. Elevated O-maze test. The elevated O-maze consisted of an annular runway positioned 40 cm above the floor and divided into two opposing 90° closed sectors and two 90° open sectors. The mice were individually placed in the closed sector and their behavior recorded over a 5-min period. The time spent in each sector and the number of sector entries (a sector entry was defined as all four of the paws being placed in a sector) were determined by video tracking (Viewpoint, Lyon, France) (FIGS. 1D and 1E).
# [11] = tested on: autophagy and proteasome pathways in the brain; test: Toxicity: cell death pathways in the brain, Western blots; conditions: mouse, in vivo
# Method: as §1
# Cell death pathways in the brain—Western blots. […] Samples were homogenized by sonication in 2 vol of ice-cold phosphate-buffered saline containing 1% Triton X-100, protease inhibitors (Complete Protease Inhibitor Cocktail, Roche Diagnostics, Basel, Switzerland) and phosphatase inhibitors (Phosphatase Inhibitor Cocktail 3; Sigma-Aldrich). Protein concentrations were determined by Bradford's method. Proteins samples (15 μg) suspended in NuPage LDS sample buffer (Invitrogen, Carlsbad, Calif., USA) were separated by Bis-Tris sodium dodecyl sulfate polyacrylamide gel electrophoresis (10% gels) and transferred onto nitrocellulose membranes (Invitrogen). Transfer efficacy was controlled by Ponceau S staining. Unspecific binding sites were blocked in Tris-buffered saline containing 0.1% Tween-20 and 5% nonfat milk and membranes were immunoprobed with antibodies against β-actin ( 1/2500) and β-catenin ( 1/300) from Sigma-Aldrich or LC3B ( 1/5000) from Abcam. Membranes were incubated with infrared-labeled secondary antibodies (IRDye 700DX and IRDye 800CW; 1/5000; Rockland, Gilbertsvillle, Pa., USA). Immunoblotting was quantified with the Odyssey Infrared Imaging System and Application Software version 3.0 (LI-COR Biosciences, Lincoln, Nebr., USA).
# [12] = compared to fluoxetine-treated and fluoxetine plus compound (I-1) treated groups
structure (smiles),measurement,setting,value
"COc1ccc2c(c1)CC/C(=C/c1cc[n+](C(C)C)c3ccccc13)N2C(C)C [Compound I-1, (Z)-1-isopropyl-4-((1-isopropyl-6-methoxy-3,4-dihydroquinolin-2(1H)-ylidene)methyl)quinolin-1-ium Iodide]",ALP,[1],53.3 ± 2.2 U/L
same,ALT,[1],49.5 ± 4.2 U/L
same,AST,[1],164.8 ± 6.2 U/L
same,Creatinine,[1],0.43 ± 0.06 mg/dL
same,Hematies,[1],8.96 ± 0.5 T/L
same,Leucocytes,[1],2.89 ± 0.4 g/L
same,Platelets,[1],254.1 ± 56.5
same,Total bilirubin,[1],0.12 ± 0.01 mg/dL
same,Urea,[1],61.7 ± 1.9 mg/dL
same,hepatotoxicity compared with fluoxetine,[1],less hepatotoxicity
same,anxiety level,[2],no effect
same,locomotor activity,[2],no effect
same,immobility time in the forced swim test,[3],moderate but reproducible lowering (antidepressant-like) action
same,metabolisation on incubation with microsomes,[4],led to the metabolisation
same,locomotor activity at the periphery of the open field,"[5]; compared to corticosterone, I-1 0.1 mg/kg/day, fluoxetine 15 mg/kg/day or both, i.p.",significant effect; also recorded: restored normal locomotor activity
same,locomotor activity in the center of the open field,[5]; [12],significant increase
same,time in the center of the open field,[5]; [12],significant increase
same,reversal of social aversion (time in interaction zone with target),social defeat model,not by compound (I-1)
same,interaction time in social interaction test,[6],significant effects on interaction time
same,sucrose preference,[7]; 11 days of treatment,significantly increased sucrose preference at 11 days
same,sucrose preference,[7]; 21 days of treatment,significantly increased sucrose preference at 21 days
same,coat state,[8],improved coat state at both time points
same,effect on weight,[9],no significant effect; also recorded: did not decrease weight
same,latency to enter the open zone of the elevated O-maze,[10],decreased the latency to enter this zone
same,time in the open zone of the elevated O-maze,[10],increased the time in the open zone
same,LC3II/LC3I ratios,[11],comparable LC3II/LC3I ratios
same,autophagy and proteasome pathways in the brain,[11],does not alter autophagy and proteasome pathways in the brain
same,β-catenin levels,[11],comparable
